# Data from ChEMBL document CHEMBL1201861, “Genomics of Drug Sensitity in Cancer screening data, Wellcome Trust Sanger Institute”.
# Columns and labels:
# Experiment in all cases: cells
# [1] = system: GAMG; type: functional, cell-based; details: Homo sapiens;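 also: cell growth inhibition measured by a viability assay in the GAMG human cell line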
# Description: SANGER: Inhibition of human GAMG cell growth in a cell viability assay.
# [2] = system: HLE; type: functional, cell-based; details: Homo sapiens;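 also: growth inhibition of human HLE cells, read out by a cell viability assay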
# Description: SANGER: Inhibition of human HLE cell growth in a cell viability assay.
# [3] = system: 647-V; type: functional, cell-based; details: Homo sapiens;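 also: growth inhibition of 647-V cells, read out with a cell viability assay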
# Description: SANGER: Inhibition of human 647-V cell growth in a cell viability assay.
# [4] = system: COLO-741; type: functional, cell-based; details: Homo sapiens
# Description: SANGER: Inhibition of human COLO-741 cell growth in a cell viability assay.
# [5] = system: CP50-MEL-B; type: functional, cell-based; details: Homo sapiens;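 also: growth inhibition of the human cell line, measured with a cell viability read-out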
# Description: SANGER: Inhibition of human CP50-MEL-B cell growth in a cell viability assay.
# [6] = system: 786-0; type: functional, cell-based; details: Homo sapiens
# Description: SANGER: Inhibition of human 786-0 cell growth in a cell viability assay.
# [7] = system: NCI-H1436; type: functional, cell-based, Homo sapiens; details: Homo sapiens, NCI-H1436;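 also: growth suppression of human NCI-H1436 cells, determined with a cell viability readout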
# Description: SANGER: Inhibition of human NCI-H1436 cell growth in a cell viability assay.
# [8] = system: CAL-12T; type: functional, cell-based; details: Homo sapiens;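 also: growth inhibition of human CAL-12T cells, read out with a cell viability assay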
# Description: SANGER: Inhibition of human CAL-12T cell growth in a cell viability assay.
# [9] = system: OE19; type: functional, cell-based; details: Homo sapiens;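 also: growth inhibition of OE19 cells, measured through a cell viability read-out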
# Description: SANGER: Inhibition of human OE19 cell growth in a cell viability assay.
# [10] = system: DU-145; type: functional, cell-based; details: Homo sapiens
# Description: SANGER: Inhibition of human DU-145 cell growth in a cell viability assay.
# [11] = system: Ca-Ski; type: functional, cell-based; details: Homo sapiens;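 also: cell viability assay measuring inhibition of Ca-Ski cell growth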
# Description: SANGER: Inhibition of human Ca-Ski cell growth in a cell viability assay.
# [12] = system: NCI-H1793; type: functional, cell-based; details: Homo sapiens;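 also: cell growth inhibition, read out by a cell viability assay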
# Description: SANGER: Inhibition of human NCI-H1793 cell growth in a cell viability assay.
# [13] = system: JEG-3; type: functional, cell-based; details: Homo sapiens;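 also: growth inhibition of human JEG-3 cells, read out with a cell viability assay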
# Description: SANGER: Inhibition of human JEG-3 cell growth in a cell viability assay.
# [14] = system: NCI-H2030; type: functional, cell-based; details: Homo sapiens;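 also: growth inhibition of human NCI-H2030 cells, read out by a cell viability assay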
# Description: SANGER: Inhibition of human NCI-H2030 cell growth in a cell viability assay.
# [15] = system: THP-1; type: functional, cell-based, Homo sapiens; details: Homo sapiens, THP-1;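 also: growth inhibition of THP-1 cells, read out via a cell viability assay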
# Description: SANGER: Inhibition of human THP-1 cell growth in a cell viability assay.
# [16] = system: KMOE-2; type: functional, cell-based, Homo sapiens; details: Homo sapiens, KMOE-2;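 also: growth inhibition of human KMOE-2 cells, read out with a cell viability assay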
# Description: SANGER: Inhibition of human KMOE-2 cell growth in a cell viability assay.
# [17] = system: CAL-51; type: functional, cell-based; details: Homo sapiens;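 also: human CAL-51 cell line, growth inhibition read out via a cell viability assay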
# Description: SANGER: Inhibition of human CAL-51 cell growth in a cell viability assay.
# [18] = system: K052; type: functional, cell-based, Homo sapiens; details: Homo sapiens, K052;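 also: Read-out from a cell viability assay, IC50 reflecting suppression of K052 cell growth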
# Description: SANGER: Inhibition of human K052 cell growth in a cell viability assay.
# [19] = system: MDA-MB-134-VI; type: functional, cell-based, Homo sapiens; details: Homo sapiens, MDA-MB-134-VI
# Description: SANGER: Inhibition of human MDA-MB-134-VI cell growth in a cell viability assay.
# [20] = system: HuCCT-1; type: functional, cell-based, HuCCT1; details: Homo sapiens;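 also: growth inhibition of HuCCT-1 cells, read out by a cell viability assay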
# Description: SANGER: Inhibition of human HuCCT1 cell growth in a cell viability assay.
# [21] = system: HOS; type: functional, cell-based; details: Homo sapiens;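 also: growth inhibition of human HOS cells, read out with a cell viability assay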
# Description: SANGER: Inhibition of human HOS cell growth in a cell viability assay.
# [22] = system: CHP-212; type: functional, cell-based; details: Homo sapiens
# Description: SANGER: Inhibition of human CHP-212 cell growth in a cell viability assay.
# [23] = system: PANC-08-13; type: functional, cell-based; details: Homo sapiens;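 also: cell growth inhibition, measured with a cell viability assay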
# Description: SANGER: Inhibition of human PANC-08-13 cell growth in a cell viability assay.
# [24] = system: HN; type: functional, cell-based; details: Homo sapiens
# Description: SANGER: Inhibition of human HN cell growth in a cell viability assay.
# [25] = system: SBC-5; type: functional, cell-based; details: Homo sapiens;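 also: cell viability assay read-out, IC50 is the concentration that inhibits growth of the cells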
# Description: SANGER: Inhibition of human SBC-5 cell growth in a cell viability assay.
# [26] = system: SAOS-2; type: functional, cell-based; details: Homo sapiens;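 also: growth inhibition of human Saos-2 cells determined by a cell viability assay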
# Description: SANGER: Inhibition of human Saos-2 cell growth in a cell viability assay.
# [27] = system: BCPAP; type: functional, cell-based; details: Homo sapiens;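 also: growth inhibition of BCPAP cells, read out in a cell viability assay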
# Description: SANGER: Inhibition of human BCPAP cell growth in a cell viability assay.
# [28] = system: UO-31; type: functional, cell-based; details: Homo sapiens;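 also: cell viability assay measuring inhibition of cell growth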
# Description: SANGER: Inhibition of human U031 cell growth in a cell viability assay.
# [29] = system: OVCAR-3; type: functional, cell-based; details: Homo sapiens;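 also: growth inhibition of human OVCAR-3 cells, determined by a cell viability assay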
# Description: SANGER: Inhibition of human OVCAR-3 cell growth in a cell viability assay.
# [30] = system: SW48; type: functional, cell-based; details: Homo sapiens;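 also: growth inhibition of SW48 cells, read out with a cell viability assay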
# Description: SANGER: Inhibition of human SW48 cell growth in a cell viability assay.
# [31] = system: KYSE-150 cell line; type: functional, cell-based; details: Homo sapiens;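 also: growth inhibition of human KYSE-150 cells, read out with a cell viability assay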
# Description: SANGER: Inhibition of human KYSE-150 cell growth in a cell viability assay.
# [32] = system: IGROV-1; type: functional, cell-based; details: Homo sapiens;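 also: reduction of IGROV-1 cell growth, read out with a viability assay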
# Description: SANGER: Inhibition of human IGROV-1 cell growth in a cell viability assay.
# [33] = system: BFTC-905; type: functional, cell-based; details: Homo sapiens
# Description: SANGER: Inhibition of human BFTC-905 cell growth in a cell viability assay.
# [34] = system: HCC1569; type: functional, cell-based; details: Homo sapiens;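 also: growth inhibition of human HCC1569 cells, read out with a cell viability assay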
# Description: SANGER: Inhibition of human HCC1569 cell growth in a cell viability assay.
# [35] = system: SW1710; type: functional, cell-based; details: Homo sapiens;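 also: growth inhibition of SW1710 cells, determined with a cell viability assay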
# Description: SANGER: Inhibition of human SW1710 cell growth in a cell viability assay.
# [36] = system: MG-63; type: functional, cell-based; details: Homo sapiens;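 also: growth inhibition of human MG-63 cells, read out with a cell viability assay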
# Description: SANGER: Inhibition of human MG-63 cell growth in a cell viability assay.
# [37] = system: NCI-H716; type: functional, cell-based, Homo sapiens; details: Homo sapiens, NCI-H716;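 also: growth inhibition of human NCI-H716 cells, measured by a cell viability assay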
# Description: SANGER: Inhibition of human NCI-H716 cell growth in a cell viability assay.
# [38] = system: HCC1954; type: functional, cell-based; details: Homo sapiens;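 also: growth inhibition of human HCC1954 cells, read out with a cell viability assay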
# Description: SANGER: Inhibition of human HCC1954 cell growth in a cell viability assay.
# [39] = system: CHL-1; type: functional, cell-based; details: Homo sapiens;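 also: cell growth inhibition, read out with a cell viability assay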
# Description: SANGER: Inhibition of human CHL-1 cell growth in a cell viability assay.
# [40] = system: HCC38; type: functional, cell-based; details: Homo sapiens;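 also: cell viability assay on the human HCC38 cell line, with IC50 marking the concentration that inhibits cell growth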
# Description: SANGER: Inhibition of human HCC38 cell growth in a cell viability assay.
# [41] = system: COLO-678; type: functional, cell-based; details: Homo sapiens
# Description: SANGER: Inhibition of human COLO-678 cell growth in a cell viability assay.
# [42] = system: FTC-133; type: functional, cell-based; details: Homo sapiens
# [43] = system: BFTC-909; type: functional, cell-based; details: Homo sapiens
# Description: SANGER: Inhibition of human BFTC-909 cell growth in a cell viability assay.
# [44] = system: SK-MEL-24; type: functional, cell-based; details: Homo sapiens;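 also: growth inhibition read out by a cell viability assay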
# Description: SANGER: Inhibition of human SK-MEL-24 cell growth in a cell viability assay.
# [45] = system: T47D; type: functional, cell-based; details: Homo sapiens;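 also: growth inhibition of human T47D cells, measured with a cell viability assay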
# Description: SANGER: Inhibition of human T47D cell growth in a cell viability assay.
# [46] = system: U-118-MG; type: functional, cell-based; details: Homo sapiens
# Description: SANGER: Inhibition of human U-118-MG cell growth in a cell viability assay.
# [47] = system: HC-1; type: functional, cell-based, Homo sapiens; details: Homo sapiens, HC-1;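 also: growth inhibition of HC-1 cells measured by a cell viability assay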
# Description: SANGER: Inhibition of human HC-1 cell growth in a cell viability assay.
# [48] = system: LC4-1; type: functional, cell-based, Homo sapiens; details: Homo sapiens, LC4-1;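 also: growth inhibition of LC4-1 cells, read out with a cell viability assay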
# Description: SANGER: Inhibition of human LC4-1 cell growth in a cell viability assay.
# [49] = system: RPMI-2650; type: functional, cell-based; details: Homo sapiens
# Description: SANGER: Inhibition of human RPMI-2650 cell growth in a cell viability assay.
# [50] = system: NCI-H510A; type: functional, cell-based, Homo sapiens; details: Homo sapiens, NCI-H510A;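 also: growth inhibition of NCI-H510A cells, read out with a cell viability assay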
# Description: SANGER: Inhibition of human NCI-H510A cell growth in a cell viability assay.
# [51] = system: KMS-12-PE; type: functional, cell-based, Homo sapiens; details: Homo sapiens, KMS-12-PE;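 also: growth inhibition of human KMS-12-PE cells, measured with a cell viability assay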
# Description: SANGER: Inhibition of human KMS-12-PE cell growth in a cell viability assay.
# [52] = system: NY; type: functional, cell-based; details: Homo sapiens
# Description: SANGER: Inhibition of human NY cell growth in a cell viability assay.
# [53] = system: P31-FUJ; type: functional, cell-based, Homo sapiens; details: Homo sapiens, P31-FUJ;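 also: growth inhibition of P31-FUJ cells, read out with a viability assay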
# Description: SANGER: Inhibition of human P31-FUJ cell growth in a cell viability assay.
# [54] = system: NCI-H2228; type: functional, cell-based; details: Homo sapiens;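 also: growth inhibition of human NCI-H2228 cells, read out by a cell viability assay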
# Description: SANGER: Inhibition of human NCI-H2228 cell growth in a cell viability assay.
# [55] = system: SR; type: functional, cell-based, Homo sapiens; details: Homo sapiens, SR
# Description: SANGER: Inhibition of human SR cell growth in a cell viability assay.
# [56] = system: PANC-03-27; type: functional, cell-based; details: Homo sapiens
# Description: SANGER: Inhibition of human PANC-03-27 cell growth in a cell viability assay.
# [57] = system: 8305C; type: functional, cell-based; details: Homo sapiens
# Description: SANGER: Inhibition of human 8305C cell growth in a cell viability assay.
# [58] = system: MCF7; type: functional, cell-based; details: Homo sapiens;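 also: growth inhibition of human MCF7 cells, read out with a cell viability assay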
# Description: SANGER: Inhibition of human MCF7 cell growth in a cell viability assay.
# [59] = system: NCI-H1623; type: functional, cell-based; details: Homo sapiens;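 also: cell viability assay used as the read-out for growth inhibition of NCI-H1623 cells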
# Description: SANGER: Inhibition of human NCI-H1623 cell growth in a cell viability assay.
# [60] = system: EHEB; type: functional, cell-based; details: Homo sapiens;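 also: growth inhibition of human EHEB cells, read out with a cell viability assay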
# Description: SANGER: Inhibition of human EHEB cell growth in a cell viability assay.
structure (smiles),measurement,setting,value
C/C(=C\c1csc(C)n1)[C@@H]1C[C@@H]2O[C@]2(C)CCC[C@H](C)[C@H](O)[C@@H](C)C(=O)C(C)(C)[C@@H](O)CC(=O)O1 [PATUPILONE],IC50,[1],1.78 nM
same,IC50,[2],0.0826 nM
same,IC50,[3],2.42 nM
same,IC50,[4],2.72 nM
same,IC50,[5],19 nM
same,IC50,[6],0.11 nM
same,IC50,[7],7.83 nM
same,IC50,[8],0.239 nM
same,IC50,[9],4.66 nM
same,IC50,[10],0.721 nM
same,IC50,[11],3.85 nM
same,IC50,[12],21 nM
same,IC50,[13],5.01 nM
same,IC50,[14],0.699 nM
same,IC50,[15],23.5 nM
same,IC50,[16],> 32 nM
same,IC50,[17],1.66 nM
same,IC50,[18],5.84 nM
same,IC50,[19],> 32 nM
same,IC50,[20],2.61 nM
same,IC50,[21],0.215 nM
same,IC50,[22],5.83 nM
same,IC50,[23],31.1 nM
same,IC50,[24],> 32 nM
same,IC50,[25],0.912 nM
same,IC50,[26],> 32 nM
same,IC50,[27],0.581 nM
same,IC50,[28],3.12 nM
same,IC50,[29],4.13 nM
same,IC50,[30],4.2 nM
same,IC50,[31],0.499 nM
same,IC50,[32],0.156 nM
same,IC50,[33],0.0499 nM
same,IC50,[34],12.8 nM
same,IC50,[35],< 0.125 nM
same,IC50,[36],0.165 nM
same,IC50,[37],> 32 nM
same,IC50,[38],9.19 nM
same,IC50,[39],0.979 nM
same,IC50,[40],3.83 nM
same,IC50,[41],> 32 nM
same,IC50,[42],30.5 nM
same,IC50,[43],1.56 nM
same,IC50,[44],> 32 nM
same,IC50,[45],> 32 nM
same,IC50,[46],18 nM
same,IC50,[47],3.98 nM
same,IC50,[48],12.8 nM
same,IC50,[49],2.08 nM
same,IC50,[50],11.9 nM
same,IC50,[51],> 32 nM
same,IC50,[52],1.56 nM
same,IC50,[53],> 32 nM
same,IC50,[54],0.473 nM
same,IC50,[55],3.65 nM
same,IC50,[56],0.132 nM
same,IC50,[57],2.32 nM
same,IC50,[58],0.0866 nM
same,IC50,[59],16.9 nM
same,IC50,[60],28.9 nM
Cc1ccc(C(=O)Nc2ccc(CN3CCN(C)CC3)c(C(F)(F)F)c2)cc1C#Cc1cnc2cccnn12 [PONATINIB],IC50,[1],> 512 nM
same,IC50,[2],419 nM
same,IC50,[3],> 512 nM
same,IC50,[4],> 512 nM
same,IC50,[5],> 512 nM
same,IC50,[6],262 nM
same,IC50,[7],> 512 nM
same,IC50,[8],> 512 nM
same,IC50,[9],> 512 nM
same,IC50,[10],> 512 nM
same,IC50,[11],> 512 nM
same,IC50,[12],> 512 nM
same,IC50,[13],> 512 nM
same,IC50,[14],312 nM
same,IC50,[15],> 512 nM
same,IC50,[16],> 512 nM
same,IC50,[17],> 512 nM
same,IC50,[18],> 512 nM
same,IC50,[19],> 512 nM
same,IC50,[20],> 512 nM
same,IC50,[21],504 nM
same,IC50,[22],> 512 nM
same,IC50,[23],> 512 nM
same,IC50,[24],> 512 nM
same,IC50,[25],> 512 nM
same,IC50,[26],> 512 nM
same,IC50,[27],360 nM
same,IC50,[28],> 512 nM
same,IC50,[29],> 512 nM
same,IC50,[30],> 512 nM
same,IC50,[31],424 nM
same,IC50,[32],> 512 nM
same,IC50,[33],> 512 nM
same,IC50,[34],> 512 nM
same,IC50,[35],365 nM
same,IC50,[36],> 512 nM
same,IC50,[37],163 nM
same,IC50,[38],> 512 nM
same,IC50,[39],> 512 nM
same,IC50,[40],> 512 nM
same,IC50,[41],> 512 nM
same,IC50,[42],> 512 nM
same,IC50,[43],> 512 nM
same,IC50,[44],398 nM
same,IC50,[45],> 512 nM
same,IC50,[46],> 512 nM
same,IC50,[47],> 512 nM
same,IC50,[48],> 512 nM
same,IC50,[49],> 512 nM
same,IC50,[50],> 512 nM
same,IC50,[51],> 512 nM
same,IC50,[52],193 nM
same,IC50,[53],> 512 nM
same,IC50,[54],> 512 nM
same,IC50,[55],> 512 nM
same,IC50,[56],> 512 nM
same,IC50,[57],398 nM
same,IC50,[58],> 512 nM
same,IC50,[59],> 512 nM
same,IC50,[60],> 512 nM
